Results published in US6136992A, “2-alkoxy estradiols and derivatives thereof” (The United States of America as represented by the …, priority 1998, dated 2000).
pIC50: −log10 of the molar value. Where two headings read alike, the source gives them in different places.

Tests used:
BT-549 = experiment: NCI screen, breast cancer; type: cell-based; conditions: Homo sapiens, read-out: Log10 GI50, BT-549 (converted)
SW-260 = experiment: NCI screen, colon cancer; type: cell-based; conditions: Homo sapiens, read-out: Log10 GI50, SW-260 (converted)
MDA-N = experiment: NCI screen, breast cancer; type: cell-based; conditions: Homo sapiens, read-out: Log10 GI50, MDA-N (converted)
ACHN = experiment: NCI screen, renal cancer; type: cell-based; conditions: Homo sapiens, read-out: Log10 GI50, ACHN (converted)
EKVX = experiment: NCI screen, non-small cell lung cancer; type: cell-based; conditions: Homo sapiens, read-out: Log10 GI50, EKVX (converted)
K562 = experiment: NCI screen, leukemia; type: cell-based; conditions: Homo sapiens, read-out: Log10 GI50, K562 (converted)
tubulin = experiment: Inhibition of tubulin polymerization (turbidimetry at 350 nm); type: biochemical, bovine; conditions: 26° C., 20 min; read-out: Inhibn of Tubulin Polymn IC50
Protocol: Four instruments were used, and two control reaction mixtures were present in each experiment. […] IC50 values were determined graphically. […]
Inhibition of tubulin polymerization was investigated using electrophoretically homogeneous tubulin from bovine brain.

NCI-H322M = experiment: NCI screen, non-small cell lung cancer; type: cell-based; conditions: Homo sapiens, read-out: Log10 GI50, NCI-H322M (converted)
SR = experiment: NCI screen, leukemia; type: cell-based; conditions: Homo sapiens, read-out: Log10 GI50, SR (converted)
OVCAR-3 = experiment: NCI screen, ovarian cancer; type: cell-based; conditions: Homo sapiens, read-out: Log10 GI50, OVCAR-3 (converted)
SK-MEL-5 = experiment: NCI screen, melanoma; type: cell-based; conditions: Homo sapiens, read-out: Log10 GI50, SK-MEL-5 (converted)
CCRF-CEM = experiment: NCI screen, leukemia; type: cell-based; conditions: Homo sapiens, read-out: Log10 GI50, CCRF-CEM (converted)
MCF7 = experiment: NCI screen, breast cancer; type: cell-based; conditions: Homo sapiens, read-out: Log10 GI50, MCF7 (converted)
[1] = tested on: HCT-116 colon cancer cells; experiment: NCI in vitro anticancer screen, HCT-116 colon cancer; type: cell-based; conditions: Homo sapiens
Description: The effects of the analogs on cancer cell growth was investigated in the National Cancer Institute (NCI) Developmental Therapeutics Program's in vitro panel of approximately 55 cell lines (Grever et al., Seminars in Oncology 19:622 (1992), Alley et al., Cancer Research 48:589 (1988) and Montes et al., J. National Cancer Institute 83:757 (1991)). Representative results are listed in Table 1 for HOP-62 non-small-cell lung cancer cells, HCT-116 colon cancer cells, SF-539 central nervous system (CNS) cancer cells, UACC-62 melanoma cells, OVCAR ovarian cancer cells, SN12-C renal cancer cells, DU-145 prostate cancer cells, and MDA-MB-435 breast cancer cells.
^a The cytotoxicity GI50 values are the concentrations

LOX IMVI = experiment: NCI screen, melanoma; type: cell-based; conditions: Homo sapiens, read-out: Log10 GI50, LOX IMVI (converted)
RXF 393 = experiment: NCI screen, renal cancer; type: cell-based; conditions: Homo sapiens, read-out: Log10 GI50, RXF 393 (converted)
[2] = tested on: MDA-MB-435 breast cancer cells; experiment: NCI in vitro anticancer screen, MDA-MB-435 breast cancer; type: cell-based; conditions: Homo sapiens
Description: The effects of the analogs on cancer cell growth was investigated in the National Cancer Institute (NCI) Developmental Therapeutics Program's in vitro panel of approximately 55 cell lines (Grever et al., Seminars in Oncology 19:622 (1992), Alley et al., Cancer Research 48:589 (1988) and Montes et al., J. National Cancer Institute 83:757 (1991)).

RPMI-8226 = experiment: NCI screen, leukemia; type: cell-based; conditions: Homo sapiens, read-out: Log10 GI50, RPMI-8226 (converted)
HS 578T = experiment: NCI screen, breast cancer; type: cell-based; conditions: Homo sapiens, read-out: Log10 GI50, HS 578T (converted)

Compound: C[C@]12CC[C@@H]3c4cc(OCC(F)(F)F)c(O)cc4C(=NO)C[C@H]3[C@@H]1CC[C@@H]2O [Compound 12, 2-(2',2', 2'-Trifluoroethoxy)-6-Hydroximino-Estra-1,3,5(10)-Triene-3,17β-Diol]
- GI50 (BT-549): < 10 nM
- GI50 (SW-260): < 10 nM
- GI50 (MDA-N): < 10 nM
- GI50 (ACHN): < 10 nM
- GI50 (EKVX): < 10 nM
- GI50 (K562): < 10 nM
- pIC50 (tubulin): 6.30
- GI50 (NCI-H322M): < 10 nM
- GI50 (SR): < 10 nM
- GI50 (OVCAR-3): < 10 nM
- GI50 (SK-MEL-5): < 10 nM
- GI50 (CCRF-CEM): < 10 nM
- GI50 (MCF7): < 10 nM
- GI50 ([1]; HCT-116, read-out: cytotoxicity GI50, Colon HCT-116): < 10 nM
- GI50 ([1]; HCT-116, Colon Cancer, read-out: Log10 GI50, HCT-116 (converted)): < 10 nM
- GI50 (LOX IMVI): < 10 nM
- GI50 (RXF 393): < 10 nM
- GI50 ([2]; MDA-MB-435, read-out: cytotoxicity GI50, Breast MDA-MB-435): < 10 nM
- GI50 ([2]; MDA-MB-435, Breast Cancer, read-out: Log10 GI50, MDA-MB-435 (converted)): < 10 nM
- GI50 (RPMI-8226): < 10 nM
- GI50 (HS 578T): < 10 nM
